Measurements as given in patent publication US6673608B1, “Somatic embryogenic regeneration of Acacia mangium” (Institute of Molecular Agrobiology, priority 2002, dated 2004).

Legend:
[1] = test system: globular somatic embryos; assay: Somatic embryo maturation (two-step maturation procedure); assay type: cell-based, Acacia mangium; conditions: ½ MS maturation media
Procedure: (§1) All media were adjusted to pH 5.8 after autoclaving at 121° C. for 25 min. Plant growth regulators tested in experiments were added into media after autoclaving but other additional substances were added into media before autoclaving. All cultures were maintained under the warm white fluorescent lights at a range of irradiance of 23.41-26.01 μmol.s^−1m^−2, with 16 h photoperiod and at 28° C.
Globular embryos (FIGS. 1B-C) induced from induction medium containing IAA 0.25 mg/l and TDZ 2.0 mg/l (AM-304) were cultured on ½ MS basal medium supplemented with 0-5.0 mg/l of GA3, 30-50 g/l of sucrose, Vc 100 mg/l, Asn 150 mg/l, CH 100 mg/l, Gln 150 mg/l, Pro 150 mg/l, phytagel 0.35% (g/l), and activated charcoal 0.1% for thirty days. Somatic embryos were then transferred onto maturation medium AM-425 and cultured for 40 days. Cotyledon somatic embryos (mature somatic embryos) were then transferred onto the medium AM-424 for germination. Each experiment was repeated twice with a total of 250 globular somatic embryos for each medium combination. Seedlings were transferred to ½ MS basal medium containing sucrose 20 g/l as well as phytagel 0.35% and cultured for two months before being transferred to pot soil consisting of peat soil: sand (3:1). […]

[2] = test system: A. mangium immature embryo axes; assay: Embryogenic callus induction from immature embryo axes; assay type: cell-based, Acacia mangium; conditions: immature embryo axes on MS basal medium
Procedure: One and half months old immature green pods were collected from twenty-meter high adult A. mangium Willd. trees at Science Park Drive of Singapore. Green seeds were gently isolated from pods and washed with sterile double deionized water (ddH2O) 4-5 times. After green seeds were surface sterilised with 30% market clorox bleach (NaClO) for 5 minutes and washed with sterile ddH2O 5 times, the seeds were sterilised again with 0.1% HgCl2 for 6 minutes and washed with sterile ddH2O 5 times. Seed coats were removed with sterilised forceps and embryos were isolated. Embryo axes (EA) (FIG. 1A) were gently separated with sterile forceps and used as explants for embryogenic callus induction.
as §1, with “28° C. […]” for “28° C.”

Structure (SMILES) | development of globular somatic embryos to torpedo and cotyledon stage (result in words) [1] | embryogenic callus induction / somatic embryogenesis (result in words) [2]
C=C1C[C@]23C[C@@]1(O)CC[C@H]2[C@@]12C=C[C@H](O)[C@@](C)(C(=O)O1)[C@H]2[C@@H]3C(=O)O [GA3, Gibberellic Acid] | promoted somatic embryo maturation | 
O=C(Nc1ccccc1)Nc1cnns1 [TDZ, 1-Phenyl-3-(1,2,3-thiadiazol-5-yl)Urea] |  | effective to induce embryogenic callus
